Source: the supplement of paper PMC10307832

How the values were obtained:
Test in all cases: relative viability (nuclei count vs DMSO), 5 days (fraction); higher = more cells survive
PC-14 = system: PC-14
Summary of the method: (§1)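 Dosing by pin tool came one day after lung cancer cell lines were seeded in 1536-well plates, using either one drug or a fixed anchor-drug dose plus five library-drug doses (not always all listed) in √10 steps. After 5 days, nuclei were counted on 4× images. Relative viability is treated-well nuclei count divided by vehicle-well nuclei count, and values are medians of duplicate plates.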

HCC-366 = system: HCC-366
Summary of the method: as §1

NCI-H647 = system: NCI-H647
Summary of the method: as §1

EMC-BAC-2 = system: EMC-BAC-2
Summary of the method: as §1

NCI-H460 = system: NCI-H460
Summary of the method: as §1

NCI-H522 = system: NCI-H522
Summary of the method: as §1

A-427 = system: A-427
Summary of the method: as §1

NCI-H2405 = system: NCI-H2405
Summary of the method: as §1

NCI-H1734 = system: NCI-H1734
Summary of the method: as §1

SK-MES-1 = system: SK-MES-1
Summary of the method: as §1

COR-L23 = system: COR-L23
Summary of the method: as §1

201T = system: 201T
Summary of the method: as §1

Compound: CCNC(=O)c1noc(-c2cc(C(C)C)c(O)cc2O)c1-c1ccc(CN2CCOCC2)cc1 [Luminespib] + Nc1nc2[nH]cc(CCc3ccc(C(=O)N[C@@H](CCC(=O)O)C(=O)O)cc3)c2c(=O)[nH]1 [Pemetrexed] (partner 0.2 µM)
- relative viability (PC-14; first compound 0.002 µM): 0.148
- relative viability (PC-14; first compound 0.006325 µM): 0.175
- relative viability (PC-14; first compound 0.02 µM): 0.132
- relative viability (PC-14; first compound 0.06325 µM): 0.0853
- relative viability (PC-14; first compound 0.2 µM): 0.0503
- relative viability (HCC-366; first compound 0.002 µM): 0.169
- relative viability (HCC-366; first compound 0.006325 µM): 0.156
- relative viability (HCC-366; first compound 0.02 µM): 0.366
- relative viability (HCC-366; first compound 0.06325 µM): 0.0354
- relative viability (HCC-366; first compound 0.2 µM): 0.0333
- relative viability (NCI-H647; first compound 0.002 µM): 0.202
- relative viability (NCI-H647; first compound 0.006325 µM): 0.189
- relative viability (NCI-H647; first compound 0.02 µM): 0.193
- relative viability (NCI-H647; first compound 0.06325 µM): 0.106
- relative viability (NCI-H647; first compound 0.2 µM): 0.0832
- relative viability (EMC-BAC-2; first compound 0.002 µM): 0.467
- relative viability (EMC-BAC-2; first compound 0.006325 µM): 0.287
- relative viability (EMC-BAC-2; first compound 0.02 µM): 0.573
- relative viability (EMC-BAC-2; first compound 0.06325 µM): 0.383
- relative viability (EMC-BAC-2; first compound 0.2 µM): 0.444
- relative viability (NCI-H460; first compound 0.002 µM): 0.0608
- relative viability (NCI-H460; first compound 0.006325 µM): 0.0558
- relative viability (NCI-H460; first compound 0.02 µM): 0.0687
- relative viability (NCI-H460; first compound 0.06325 µM): 0.0359
- relative viability (NCI-H460; first compound 0.2 µM): 0.0287
- relative viability (NCI-H522; first compound 0.002 µM): 1.01
- relative viability (NCI-H522; first compound 0.006325 µM): 0.974
- relative viability (NCI-H522; first compound 0.02 µM): 0.855
- relative viability (NCI-H522; first compound 0.06325 µM): 0.675
- relative viability (NCI-H522; first compound 0.2 µM): 0.353
- relative viability (A-427; first compound 0.002 µM): 0.958
- relative viability (A-427; first compound 0.006325 µM): 0.25
- relative viability (A-427; first compound 0.02 µM): 0.812
- relative viability (A-427; first compound 0.06325 µM): 0.495
- relative viability (A-427; first compound 0.2 µM): 0.256
- relative viability (NCI-H2405; first compound 0.002 µM): 1.08
- relative viability (NCI-H2405; first compound 0.02 µM): 0.915
- relative viability (NCI-H2405; first compound 0.06325 µM): 0.183
- relative viability (NCI-H2405; first compound 0.2 µM): 0.179
- relative viability (NCI-H1734; first compound 0.002 µM): 0.475
- relative viability (NCI-H1734; first compound 0.006325 µM): 0.406
- relative viability (NCI-H1734; first compound 0.02 µM): 0.428
- relative viability (NCI-H1734; first compound 0.06325 µM): 0.159
- relative viability (NCI-H1734; first compound 0.2 µM): 0.143
- relative viability (SK-MES-1; first compound 0.002 µM): 0.962
- relative viability (SK-MES-1; first compound 0.006325 µM): 0.877
- relative viability (SK-MES-1; first compound 0.02 µM): 0.517
- relative viability (SK-MES-1; first compound 0.06325 µM): 0.153
- relative viability (SK-MES-1; first compound 0.2 µM): 0.177
- relative viability (COR-L23; first compound 0.002 µM): 0.19
- relative viability (COR-L23; first compound 0.006325 µM): 0.187
- relative viability (COR-L23; first compound 0.02 µM): 0.215
- relative viability (COR-L23; first compound 0.06325 µM): 0.196
- relative viability (COR-L23; first compound 0.2 µM): 0.101
- relative viability (201T; first compound 0.002 µM): 0.333
- relative viability (201T; first compound 0.006325 µM): 0.311
- relative viability (201T; first compound 0.02 µM): 0.346
